{
  "source": "PubChem BioAssay AID624396",
  "about": "(The Scripps Research Institute Molecular Screening Center, 2012)",
  "assay_in_all_cases": "pro-apoptotic nuclear morphology in cancer cells – imaging, DAPI staining, cell line panel, probe, mechanism study for MCL1-BIM inhibitor project, late-stage follow-up (AID 624396)",
  "key": {"[1]": {"test_system": "1863 BCL-XL", "details": "cancer cell panel apoptosis"}, "[2]": {"test_system": "DHL-10", "details": "cancer cell panel apoptosis, single IC50 determination, other campaign"}, "[3]": {"test_system": "NCI-H929", "details": "cancer cell panel apoptosis"}, "[4]": {"test_system": "1780 MCl1", "details": "cancer cell panel apoptosis"}, "[5]": {"test_system": "DHL-6", "details": "cancer cell panel apoptosis"}},
  "note": "Values joined by “and” are separate entries in the source; they are usually repeats but may differ in a detail not shown here. Equal values may be shown once.",
  "data": [
    {"smiles": "CCN1CCN(C(c2ccc(C(F)(F)F)cc2)c2ccc3cccnc3c2O)CC1", "note": "(stereo not given)", "values": [
      {"measurement": "IC50", "setting": "[1]", "result": "1.2 µM and 1.1 µM"},
      {"measurement": "IC50", "setting": "[2]", "result": "> 25", "unit": "µM"},
      {"measurement": "IC50", "setting": "[3]", "result": "3.6 µM and 1.6 µM"},
      {"measurement": "IC50", "setting": "[4]", "result": "0.7 µM and 0.3 µM"},
      {"measurement": "IC50", "setting": "[5]", "result": "2.2 µM and 3.3 µM"}
    ]}
  ]
}
